From publication PMC7349888, “Synthesis and Evaluation of Dodecaboranethiol Containing Kojic Acid (KA-BSH) as a Novel Agent for Boron Neutron Capture Therapy” (Cells, 2020)
Values joined by “and” are separate entries in the source; they are usually repeats but may differ in a detail not shown here. Equal values may be shown once.

Experiments:
[1] = test system: C6 rat glioma cells; assay: In vitro boron uptake in C6 cells; type: cell-based; details: Figure S1
Method: For the in vitro ^10B uptake study, B16 mouse melanoma cells, C6 rat glioma cells, and F98 rat glioma cells were used. B16 and C6 cells were used for in vitro testing at Osaka Prefecture University. Based on results from initial in vitro screening, the in vitro ^10B uptake study using F98 glioma cells were performed at Osaka Medical College. Four hundred thousand cells were seeded in a tissue culture dish (100 × 20 mm; Becton Dickinson, Franklin Lakes, NJ, USA) with DMEM supplemented with 10% FBS and 10% penicillin and streptomycin at 37 °C in a 5% CO2 atmosphere. After incubation for 4 days at 37 °C, the medium was removed, and DMEM with 10% FBS containing 1 mM KA-BSH, BSH, or BPA was added to each dish. The cells were incubated for an additional 24 h at 37 °C. The medium was then removed, and the cells were washed twice with 4 °C phosphate-buffered saline (PBS) and detached with trypsin–ethylenediamine tetraacetic acid solution. PBS was then added, and cells were digested overnight with 1 N nitric acid solution (Wako Pure Chemical Industries, Osaka, Japan), and ^10B uptake was determined by inductively coupled plasma atomic emission spectrometry (ICP-AES) using an iCAP6000 emission spectrometer (Hitachi High-Technologies, Tokyo, Japan).

[2] = test system: F98 glioma bearing rats; assay: Biodistribution in F98 glioma bearing rats (ICP-AES); type: in vivo, rat; details: iv
From the text: All animal experimental procedures were approved by the Animal Use Review Board and Ethical Committee of Osaka Medical College (No. 25092, 28 October 2015) and Kyoto University Research Reactor Institute (KURRI, No. 25030-13, 1 April 2015), and performed following the Guide for the Care and Use of Laboratory Animals. Eight-week-old, male Fischer 344 rats weighing between 200 and 250 g were used (Japan SLC, Inc. Shizuoka, Japan). Rats were anesthetized with an intraperitoneal (ip) injection of a mixture of medetomidine 0.15 mg, midazolam 2 mg, and butorphanol 2.5 mg/kg body weight (bw). The head of each rat was fixed with a stereotactic frame (Model 900; David Kopf Instruments, Tujunga, CA, USA). The scalp was incised at the midline and a small burr hole was drilled into the skull (1 mm posterior and 4 mm right-lateral to the bregma), using an electric drill. And then, F98 glioma cells were injected into the brain using a 25 µL Hamilton microsyringe with a 26-gauge needle (model 1700 RN, Hamilton Bonaduz AG, Bonaduz, Switzerland). The needle was inserted at a 5 mm depth from the skull and F98 cells were diluted in 10 µL of DMEM containing low-gelling temperature agarose at a concentration of either 10^3 for therapeutic experiments or 10^5 cells for biodistribution experiments. They were injected over 30 s using an automatic infuser pump. The needle entry hole was immediately sealed with bone wax and the incised scalp was closed with 3-0 silk sutures (Ethicon, North Ryde, NSW). After surgery, all animals were given atipamezole hydrochloride (0.15 mg/kg bw, ip).
Biodistribution studies were performed in Fischer rats bearing intracerebral implants of F98 rat glioma cells. 10–13 days after tumor implantation of 10^5 F98 glioma cells, when signs of a progressively growing tumor were evident (weight loss, lethargy, hunching, and ataxia), biodistribution studies were initiated at which time the animals had tumors weighing 90–180 mg. […] To compare its biodistribution with that of BPA or BSH, another group of rats received an iv injection of BPA at a concentration of 10 mg ^10B/kg bw or BSH at a concentration of 30 mg ^10B/kg bw. Biodistribution was determined 1 and 3 h after termination of iv injection. Animals were euthanized by an overdose of sevoflurane following which tumors and normal tissues, consisting of ipsilateral brain, contralateral brain, blood, heart, lung, liver, spleen, kidney, skin, and muscle, were removed and weighed for ^10B determination by ICP-AES.

For “S-(2-(5-hydroxy-4-oxo-4H-pyran-2-yl) methyl) Thioundecahydro-Closo- Dodecaborate (2-) Disodium Salt [KA-BSH]”, the “boron uptake into cancer cells” value [1] was “taken up into cancer cells”, the “10B concentration, Blood” value ([2]; 10 mg 10B/kg, 1 h) was 4.71 µg 10B/g and the “10B concentration, Contralateral brain” value ([2]; 10 mg 10B/kg, 1 h) was 0.24 µg 10B/g. The “10B concentration, Heart” value ([2]; 10 mg 10B/kg, 1 h) was 1.18 µg 10B/g, the “10B concentration, Ipsilateral brain” value ([2]; 10 mg 10B/kg, 1 h) was 0.29 µg 10B/g and the “10B concentration, Liver” value ([2]; 10 mg 10B/kg, 1 h) was 5.15 µg 10B/g. For the same substance, the “10B concentration, Lung” value ([2]; 10 mg 10B/kg, 1 h) was 4.31 µg 10B/g, the “10B concentration, Muscle” value ([2]; 10 mg 10B/kg, 1 h) was 0.63 µg 10B/g and the “10B concentration, Skin” value ([2]; 10 mg 10B/kg, 1 h) was 1.79 µg 10B/g. For the same substance, the “10B concentration, Spleen” value ([2]; 10 mg 10B/kg, 1 h) was 14.34 µg 10B/g, the “10B concentration, Tumor” value ([2]; 10 mg 10B/kg, 1 h) was 1.42 µg 10B/g and 1.42 ± 0.28 µg 10B/g and the “T/Bl (tumor to blood ratio)” value ([2]; 10 mg 10B/kg, 1 h) was 0.31. For the same substance, the “T/Br (tumor to normal contralateral brain ratio)” value ([2]; 10 mg 10B/kg, 1 h) was 5.99, the “10B concentration, Blood” value ([2]; 10 mg 10B/kg, 3 h) was 1.26 µg 10B/g and the “10B concentration, Contralateral brain” value ([2]; 10 mg 10B/kg, 3 h) was 0.09 µg 10B/g. The “10B concentration, Heart” value ([2]; 10 mg 10B/kg, 3 h) was 0.29 µg 10B/g, the “10B concentration, Ipsilateral brain” value ([2]; 10 mg 10B/kg, 3 h) was 0.10 µg 10B/g and the “10B concentration, Liver” value ([2]; 10 mg 10B/kg, 3 h) was 4.13 µg 10B/g. For the same substance, the “10B concentration, Lung” value ([2]; 10 mg 10B/kg, 3 h) was 0.74 µg 10B/g, the “10B concentration, Muscle” value ([2]; 10 mg 10B/kg, 3 h) was 0.19 µg 10B/g and the “10B concentration, Skin” value ([2]; 10 mg 10B/kg, 3 h) was 0.45 µg 10B/g. The “10B concentration, Spleen” value ([2]; 10 mg 10B/kg, 3 h) was 16.07 µg 10B/g, the “10B concentration, Tumor” value ([2]; 10 mg 10B/kg, 3 h) was 0.85 µg 10B/g and the “T/Bl (tumor to blood ratio)” value ([2]; 10 mg 10B/kg, 3 h) was 0.69. The “T/Br (tumor to normal contralateral brain ratio)” value ([2]; 10 mg 10B/kg, 3 h) was 9.52, the “10B concentration, Blood” value ([2]; 20 mg 10B/kg, 1 h) was 8.76 µg 10B/g and the “10B concentration, Contralateral brain” value ([2]; 20 mg 10B/kg, 1 h) was 0.24 µg 10B/g. For the same substance, the “10B concentration, Heart” value ([2]; 20 mg 10B/kg, 1 h) was 2.10 µg 10B/g, the “10B concentration, Ipsilateral brain” value ([2]; 20 mg 10B/kg, 1 h) was 0.31 µg 10B/g and the “10B concentration, Liver” value ([2]; 20 mg 10B/kg, 1 h) was 10.25 µg 10B/g. For the same substance, the “10B concentration, Lung” value ([2]; 20 mg 10B/kg, 1 h) was 6.11 µg 10B/g, the “10B concentration, Muscle” value ([2]; 20 mg 10B/kg, 1 h) was 2.35 µg 10B/g and the “10B concentration, Skin” value ([2]; 20 mg 10B/kg, 1 h) was 3.56 µg 10B/g. The “10B concentration, Spleen” value ([2]; 20 mg 10B/kg, 1 h) was 10.30 µg 10B/g, the “10B concentration, Tumor” value ([2]; 20 mg 10B/kg, 1 h) was 2.96 µg 10B/g and the “T/Bl (tumor to blood ratio)” value ([2]; 20 mg 10B/kg, 1 h) was 0.34. For the same substance, the “T/Br (tumor to normal contralateral brain ratio)” value ([2]; 20 mg 10B/kg, 1 h) was 13.21, the “10B concentration, Blood” value ([2]; 20 mg 10B/kg, 3 h) was 1.54 µg 10B/g and the “10B concentration, Contralateral brain” value ([2]; 20 mg 10B/kg, 3 h) was 0.09 µg 10B/g. The “10B concentration, Heart” value ([2]; 20 mg 10B/kg, 3 h) was 0.39 µg 10B/g, the “10B concentration, Ipsilateral brain” value ([2]; 20 mg 10B/kg, 3 h) was 0.14 µg 10B/g and the “10B concentration, Liver” value ([2]; 20 mg 10B/kg, 3 h) was 5.40 µg 10B/g. For the same substance, the “10B concentration, Lung” value ([2]; 20 mg 10B/kg, 3 h) was 1.37 µg 10B/g, the “10B concentration, Muscle” value ([2]; 20 mg 10B/kg, 3 h) was 0.24 µg 10B/g and the “10B concentration, Skin” value ([2]; 20 mg 10B/kg, 3 h) was 0.57 µg 10B/g. For the same substance, the “10B concentration, Spleen” value ([2]; 20 mg 10B/kg, 3 h) was 8.44 µg 10B/g, the “10B concentration, Tumor” value ([2]; 20 mg 10B/kg, 3 h) was 1.47 µg 10B/g and the “T/Bl (tumor to blood ratio)” value ([2]; 20 mg 10B/kg, 3 h) was 1.12. For the same substance, the “T/Br (tumor to normal contralateral brain ratio)” value ([2]; 20 mg 10B/kg, 3 h) was 21.07, the “10B concentration in blood” value ([2]; 30 mg 10B/kg, 1 h) was 14.21 ± 3.17 µg/mL and the “10B concentration, Blood” value ([2]; 30 mg 10B/kg, 1 h) was 14.21 µg 10B/g. The “10B concentration, Contralateral brain” value ([2]; 30 mg 10B/kg, 1 h) was 0.45 µg 10B/g, the “10B concentration, Heart” value ([2]; 30 mg 10B/kg, 1 h) was 3.45 µg 10B/g and the “10B concentration, Ipsilateral brain” value ([2]; 30 mg 10B/kg, 1 h) was 0.63 µg 10B/g. For the same substance, the “10B concentration, Liver” value ([2]; 30 mg 10B/kg, 1 h) was 10.33 ± 2.61 µg 10B/g and 10.33 µg 10B/g, the “10B concentration, Lung” value ([2]; 30 mg 10B/kg, 1 h) was 9.27 µg 10B/g and the “10B concentration, Muscle” value ([2]; 30 mg 10B/kg, 1 h) was 2.26 µg 10B/g. The “10B concentration, Skin” value ([2]; 30 mg 10B/kg, 1 h) was 7.25 µg 10B/g, the “10B concentration, Spleen” value ([2]; 30 mg 10B/kg, 1 h) was 3.77 µg 10B/g and the “10B concentration, Tumor” value ([2]; 30 mg 10B/kg, 1 h) was 6.65 µg 10B/g and 6.65 ± 0.25 µg 10B/g. For the same substance, the “T/Bl (tumor to blood ratio)” value ([2]; 30 mg 10B/kg, 1 h) was 0.49, the “T/Br (tumor to normal contralateral brain ratio)” value ([2]; 30 mg 10B/kg, 1 h) was 15.27 and the “10B concentration in blood” value ([2]; 30 mg 10B/kg, 3 h) was 2.35 ± 1.37 µg/mL. The “10B concentration, Blood” value ([2]; 30 mg 10B/kg, 3 h) was 2.35 µg 10B/g, the “10B concentration, Contralateral brain” value ([2]; 30 mg 10B/kg, 3 h) was 0.14 µg 10B/g and the “10B concentration, Heart” value ([2]; 30 mg 10B/kg, 3 h) was 0.56 µg 10B/g. For the same substance, the “10B concentration, Ipsilateral brain” value ([2]; 30 mg 10B/kg, 3 h) was 0.35 µg 10B/g, the “10B concentration, Liver” value ([2]; 30 mg 10B/kg, 3 h) was 4.19 ± 1.79 µg 10B/g and 4.19 µg 10B/g and the “10B concentration, Lung” value ([2]; 30 mg 10B/kg, 3 h) was 2.26 µg 10B/g. For the same substance, the “10B concentration, Muscle” value ([2]; 30 mg 10B/kg, 3 h) was 0.32 µg 10B/g, the “10B concentration, Skin” value ([2]; 30 mg 10B/kg, 3 h) was 1.06 µg 10B/g and the “10B concentration, Spleen” value ([2]; 30 mg 10B/kg, 3 h) was 5.68 µg 10B/g. The “10B concentration, Tumor” value ([2]; 30 mg 10B/kg, 3 h) was 2.91 µg 10B/g, the “T/Bl (tumor to blood ratio)” value ([2]; 30 mg 10B/kg, 3 h) was 1.58 and the “T/Br (tumor to normal contralateral brain ratio)” value ([2]; 30 mg 10B/kg, 3 h) was 23.09. For the same substance, the “clearance from normal tissues” value ([2]; 1 vs 3 h) was “rapid clearance from normal tissues”, the “10B Concentrations, Brain (Table 1)” value ([2]; 1 h, used for dose estimation) was 0.3 μg 10B/g and the “10B Concentrations, Tumor (Table 1)” value ([2]; 1 h, used for dose estimation) was 1.4 μg 10B/g.
